{"source": "patent US5358712A", "about": "“Radiopharmaceutical agents for the detection of Alzheimer's disease” (Regents of the University of Minnesota, priority 1993, dated 1994)", "key": {"vesamicol receptor": {"tested_on": "vesamicol receptor", "assay": "Blocking experiments: inhibition of radiotracer accumulation in the rat by coadministered compound", "type": "in vivo, rat (male Wistar)", "conditions": "rat; for radioactivity in heart / Brain: Blood Ratio / Heart: Blood Ratio / radioactivity in blood / radioactivity in brain / radioactivity in kidney / radioactivity in liver / radioactivity in lung / radioactivity in muscle / radioactivity in spleen: iv, 60 min", "experimental": "*Animals in group 1 received an iv injection of (+)4-[^125 l]HIPP\nonly. For groups 2, 3, and 4, the radiotracer was coadministered with the\nhydrochlorides of (+)7 (0.53 mg/kg), (-)7 (0.53 mg/kg) and vesamicol (0.3\nFour groups of male Wistar rats (n=3) were used in these experiments. All animals received an iv dose of 8-10 μCi of the radiotracer in 0.1 ml of 50% aq. ethanol. Additionally, in groups 2, 3 and 4, the radiotracer was coadministered with (+)-HBrPP.HCl(1.3 μmol/kg), (-)-HBrPP.HCl(1.3 μmol/kg) and (dl)-vesamicol hydrochloride (1.1 μmol/kg), respectively. At 60 min. post-injection, blood was collected by cardiac puncture and the animals sacrificed as described above. The data was analyzed as outlined above.\nNOTE: The dose of radiotracer injected was 5-7 mCi. Group I was the\ncontrol, injected with the radiotracer only. Group II included the\nsimultaneous injection of \"cold\"(dl)3-HIPP (HCl) (0.53 mg/kg). Group III\nincluded the simultaneous injection of (dl) vesamicol (HCl) (0.31 mg/kg).\nAll rats were sacrificed at one hour postinjection.\nNOTE: Group I was the control, injected with the radiotracer only. Group\nII included the simultaneous injection of \"cold\"(dl)3-HIPP (HCl) (0.53\nmg/kg). Group III included the simultaneous injection of (dl) vesamicol\nhydrochloride (0.31 mg/kg). The dose of radiotracer was 8-9 μCi. All\nrats were sacrificed at one hour postinjection.\nNOTE: Group I received (+)[^125 l]13 only. Group II received the (+)\nradiotracer coinjected with 0.31 mg/kg (dl)vesamicol hydrochloride. Group\nIII received (-)[^125 l]13 only. Group IV received the (-) radiotrace\ncoinjected with 0.31 mg/kg (dl)vesamicol hydrochloride. All animals were\nsacrificed at one hour postinjection. The dose of radiotracer injected pe"}, "[1]": {"assay": "Tissue distribution (biodistribution) of radioiodinated compound in the rat", "conditions": "rat; for Brain: Blood Ratio / Heart: Blood Ratio / radioactivity in blood / radioactivity in brain / radioactivity in heart / radioactivity in kidney / radioactivity in liver / radioactivity in lung / radioactivity in muscle / radioactivity in spleen: iv"}, "[2]": {"conditions": "+ (dl)-vesamicol HCl 0.3 (Table 3) or 0.31 mg/kg"}, "[3]": {"conditions": "+ cold (dl)3-HIPP HCl 0.53 mg/kg"}}, "data": [{"smiles": "OC(CN1CCC(c2ccccc2)CC1)c1ccc([125I])cc1", "note": "(single isomer, unassigned; (-)) [(-)-[^125 l]13] [1-(4-Iodophenyl)-2-(4-phenylpiperidinyl)ethanol]", "values": [{"measurement": "radioactivity in heart", "setting": "vesamicol receptor; [2]", "value": "0.08 % dose/g of tissue"}, {"measurement": "Brain: Blood Ratio", "setting": "vesamicol receptor; [2]", "value": 1.61}, {"measurement": "Heart: Blood Ratio", "setting": "vesamicol receptor; [2]", "value": 0.99}, {"measurement": "radioactivity in blood", "setting": "vesamicol receptor; [2]", "value": "0.08 % dose/g of tissue"}, {"measurement": "radioactivity in brain", "setting": "vesamicol receptor; [2]", "value": "0.13 % dose/g of tissue"}, {"measurement": "radioactivity in kidney", "setting": "vesamicol receptor; [2]", "value": "0.38 % dose/g of tissue"}, {"measurement": "radioactivity in liver", "setting": "vesamicol receptor; [2]", "value": "1.44 % dose/g of tissue"}, {"measurement": "radioactivity in lung", "setting": "vesamicol receptor; [2]", "value": "0.34 % dose/g of tissue"}, {"measurement": "radioactivity in muscle", "setting": "vesamicol receptor; [2]", "value": "0.07 % dose/g of tissue"}, {"measurement": "radioactivity in spleen", "setting": "vesamicol receptor; [2]", "value": "0.27 % dose/g of tissue"}, {"measurement": "Brain: Blood Ratio", "setting": "vesamicol receptor; radiotracer only (control)", "value": 7.41}, {"measurement": "Heart: Blood Ratio", "setting": "vesamicol receptor; radiotracer only (control)", "value": 1.31}, {"measurement": "radioactivity in blood", "setting": "vesamicol receptor; radiotracer only (control)", "value": "0.10 % dose/g of tissue"}, {"measurement": "radioactivity in brain", "setting": "vesamicol receptor; radiotracer only (control)", "value": "0.73 % dose/g of tissue"}, {"measurement": "radioactivity in heart", "setting": "vesamicol receptor; radiotracer only (control)", "value": "0.13 % dose/g of tissue"}, {"measurement": "radioactivity in kidney", "setting": "vesamicol receptor; radiotracer only (control)", "value": "1.26 % dose/g of tissue"}, {"measurement": "radioactivity in liver", "setting": "vesamicol receptor; radiotracer only (control)", "value": "1.66 % dose/g of tissue"}, {"measurement": "radioactivity in lung", "setting": "vesamicol receptor; radiotracer only (control)", "value": "0.66 % dose/g of tissue"}, {"measurement": "radioactivity in muscle", "setting": "vesamicol receptor; radiotracer only (control)", "value": "0.11 % dose/g of tissue"}, {"measurement": "radioactivity in spleen", "setting": "vesamicol receptor; radiotracer only (control)", "value": "0.61 % dose/g of tissue"}, {"measurement": "decrease of concentration in the brain", "setting": "[1]; 3 hours post-injection vs initial, listed as (-)-[^125 I]13", "value": 85, "unit": "%"}, {"measurement": "initial accumulation in the rat brain", "setting": "[1]; listed as (-)-[^125 I]13", "value": "1.69 % of the injected dose"}, {"measurement": "Brain: Blood Ratio", "setting": "[1]; 5 min", "value": 8.7}, {"measurement": "Heart: Blood Ratio", "setting": "[1]; 5 min", "value": 6.2}, {"measurement": "radioactivity in blood", "setting": "[1]; 5 min", "value": 0.13, "unit": "% dose/g"}, {"measurement": "radioactivity in brain", "setting": "[1]; 5 min", "value": 1.08, "unit": "% dose/g"}, {"measurement": "radioactivity in heart", "setting": "[1]; 5 min", "value": 0.77, "unit": "% dose/g"}, {"measurement": "radioactivity in kidney", "setting": "[1]; 5 min", "value": 3.38, "unit": "% dose/g"}, {"measurement": "radioactivity in liver", "setting": "[1]; 5 min", "value": 1.72, "unit": "% dose/g"}, {"measurement": "radioactivity in lung", "setting": "[1]; 5 min", "value": 5.05, "unit": "% dose/g"}, {"measurement": "radioactivity in muscle", "setting": "[1]; 5 min", "value": 0.32, "unit": "% dose/g"}, {"measurement": "radioactivity in spleen", "setting": "[1]; 5 min", "value": 0.70, "unit": "% dose/g"}, {"measurement": "Brain: Blood Ratio", "setting": "[1]; 60 min", "value": 11.1}, {"measurement": "Heart: Blood Ratio", "setting": "[1]; 60 min", "value": 2.0}, {"measurement": "radioactivity in blood", "setting": "[1]; 60 min", "value": 0.06, "unit": "% dose/g"}, {"measurement": "radioactivity in brain", "setting": "[1]; 60 min", "value": ".70 % dose/g"}, {"measurement": "radioactivity in heart", "setting": "[1]; 60 min", "value": 0.13, "unit": "% dose/g"}, {"measurement": "radioactivity in kidney", "setting": "[1]; 60 min", "value": 1.47, "unit": "% dose/g"}, {"measurement": "radioactivity in liver", "setting": "[1]; 60 min", "value": 1.90, "unit": "% dose/g"}, {"measurement": "radioactivity in lung", "setting": "[1]; 60 min", "value": 0.54, "unit": "% dose/g"}, {"measurement": "radioactivity in muscle", "setting": "[1]; 60 min", "value": 0.11, "unit": "% dose/g"}, {"measurement": "radioactivity in spleen", "setting": "[1]; 60 min", "value": 0.57, "unit": "% dose/g"}, {"measurement": "Brain: Blood Ratio", "setting": "[1]; 180 min", "value": 5.5}, {"measurement": "Heart: Blood Ratio", "setting": "[1]; 180 min", "value": 0.9}, {"measurement": "radioactivity in blood", "setting": "[1]; 180 min", "value": 0.06, "unit": "% dose/g"}, {"measurement": "radioactivity in brain", "setting": "[1]; 180 min", "value": 0.35, "unit": "% dose/g"}, {"measurement": "radioactivity in heart", "setting": "[1]; 180 min", "value": 0.05, "unit": "% dose/g"}, {"measurement": "radioactivity in kidney", "setting": "[1]; 180 min", "value": 0.74, "unit": "% dose/g"}, {"measurement": "radioactivity in liver", "setting": "[1]; 180 min", "value": 0.98, "unit": "% dose/g"}, {"measurement": "radioactivity in lung", "setting": "[1]; 180 min", "value": 0.24, "unit": "% dose/g"}, {"measurement": "radioactivity in muscle", "setting": "[1]; 180 min", "value": 0.05, "unit": "% dose/g"}, {"measurement": "radioactivity in spleen", "setting": "[1]; 180 min", "value": 0.23, "unit": "% dose/g"}]}, {"smiles": "OC(Cc1cccc([125I])c1)CN1CCC(c2ccccc2)CC1", "note": "(single isomer, unassigned; (+)) [(+)-[^125 l]12] [2-Hydroxyl-3-(3-iodophenyl)-1-[1-(4-phenylpiperidinyl)]propane]", "values": [{"measurement": "effect of coadministered vesamicol on accumulation (in words)", "setting": "vesamicol receptor", "value": "inhibited"}, {"measurement": "Brain: Blood Ratio", "setting": "vesamicol receptor; [2]", "value": 2.14}, {"measurement": "Heart: Blood Ratio", "setting": "vesamicol receptor; [2]", "value": 1.10}, {"measurement": "Brain: Blood Ratio", "setting": "vesamicol receptor; [3]", "value": 1.92}, {"measurement": "Heart: Blood Ratio", "setting": "vesamicol receptor; [3]", "value": 1.16}, {"measurement": "Brain: Blood Ratio", "setting": "vesamicol receptor; radiotracer only (control)", "value": 8.49}, {"measurement": "Heart: Blood Ratio", "setting": "vesamicol receptor; radiotracer only (control)", "value": 3.96}, {"measurement": "decrease of concentration in the brain", "setting": "[1]; 1 hour post-injection vs initial, listed as (+)-[^125 I]12", "value": 20, "unit": "%"}, {"measurement": "decrease of concentration in the brain", "setting": "[1]; 3 hours post-injection vs initial, listed as (+)-[^125 I]12", "value": 54, "unit": "%"}, {"measurement": "initial accumulation in the rat brain", "setting": "[1]; listed as (+)-[^125 I]12", "value": "2.08 % of the injected dose"}, {"measurement": "Brain: Blood Ratio", "setting": "[1]; 5 min", "value": 13.1}, {"measurement": "Heart: Blood Ratio", "setting": "[1]; 5 min", "value": 16.4}, {"measurement": "Brain: Blood Ratio", "setting": "[1]; 60 min", "value": 9.2}, {"measurement": "Heart: Blood Ratio", "setting": "[1]; 60 min", "value": 4.2}, {"measurement": "Brain: Blood Ratio", "setting": "[1]; 180 min", "value": 7.2}, {"measurement": "Heart: Blood Ratio", "setting": "[1]; 180 min", "value": 2.1}, {"measurement": "radioactivity in brain", "setting": "[1]; 180 min", "value": 0.56, "unit": "% dose/g"}]}]}
